Among the data in US10981917B2, “Heterocyclic compound, its preparation method, and pharmaceutical composition comprising the same” (Daewoong Pharmaceutical Co., Ltd., priority 2017, dated 2021) are IC50 values, retold here.

SMILES strings stand for the structures. Where only a bound is given, the exact number is not on record here.

This experiment deals with PRS (prolyl-tRNA synthetase) protein, PRS portion of EPRS (Homo sapiens (Human), UniProt P07814). The experiment in a line: PRS enzyme activity inhibition experiment ([3H]proline, liquid scintillation). It is filed as biochemical. Conditions: purified PRS protein, 37° C. for 5 to 10 minutes. In outline: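 Values are % inhibition or IC50 ranges (A ≤100 nM, B 100–500 nM, C ≥500 nM) from [3H]proline incorporation measured by liquid scintillation. PRS portion of human EPRS, reacted 5–10 min at 37 °C in pH 7.4 phosphate buffer containing 5 mM ATP and tRNA, compound at 1 μM.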
Sequence of PRS (prolyl-tRNA synthetase) protein, PRS portion of EPRS (P07814 1007-1512): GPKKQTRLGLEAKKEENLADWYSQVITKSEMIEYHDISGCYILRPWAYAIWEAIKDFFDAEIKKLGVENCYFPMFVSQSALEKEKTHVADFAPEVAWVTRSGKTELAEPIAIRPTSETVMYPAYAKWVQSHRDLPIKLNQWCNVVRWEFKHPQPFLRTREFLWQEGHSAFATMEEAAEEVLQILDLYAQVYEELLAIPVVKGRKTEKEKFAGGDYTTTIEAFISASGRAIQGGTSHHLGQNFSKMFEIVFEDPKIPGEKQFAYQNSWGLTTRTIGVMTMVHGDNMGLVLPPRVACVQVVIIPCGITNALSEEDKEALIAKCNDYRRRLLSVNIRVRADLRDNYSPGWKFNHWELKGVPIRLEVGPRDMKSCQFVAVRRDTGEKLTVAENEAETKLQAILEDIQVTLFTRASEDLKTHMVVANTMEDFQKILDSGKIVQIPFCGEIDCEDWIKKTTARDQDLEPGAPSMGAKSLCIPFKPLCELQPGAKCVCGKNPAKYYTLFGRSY
As to `O[C@H]1CCCN[C@@H]1CCCn1cnc2cc(Cl)cc(-c3cccc(F)c3)c21` [Example 83, (2R,3S)-2-(3-(5-chloro-7-(3-fluorophenyl)-1H-benzo[d]imidazol-1-yl)propyl)piperidin-3-ol], the 50% inhibitory concentration (IC50) (in general, the concentration that gives 50% inhibition) was not above 100 nM.

The compound `O[C@H]1CCCN[C@@H]1CCCn1cnc2cc(C(F)(F)F)cc(-c3cccc(F)c3)c21` [Example 84, (2R,3S)-2-(3-(7-(3-fluorophenyl)-5-(trifluoromethyl)-1H-benzo[d]imidazol-1-yl)propyl)piperidin-3-ol] showed an IC50 not below 500 nM.

In turn, `Cc1ncc(-c2cc(Cl)cc3ncn(CCC[C@H]4NCCC[C@@H]4O)c23)s1` [Example 85, (2R,3S)-2-(3-(5-chloro-7-(2-methylthiazol-5-yl)-1H-benzo[d]imidazol-1-yl)propyl)piperidin-3-ol] showed an IC50 of 100 to 500 nM.

As to `O[C@H]1CCCN[C@@H]1CCCn1cnc2cc(Cl)cc(-c3cccnc3)c21` [Example 86, (2R,3S)-2-(3-(5-chloro-7-(pyridin-3-yl)-1H-benzo[d]imidazol-1-yl)propyl)piperidin-3-ol], the IC50 lay within 100 to 500 nM.

Regarding `O[C@H]1CCCN[C@@H]1CCCn1cnc2cc(Cl)cc(-c3cncc(F)c3)c21` [Example 87, (2R,3S)-2-(3-(5-chloro-7-(5-fluoropyridin-3-yl)-1H-benzo[d]imidazol-1-yl)propyl)piperidin-3-ol], the IC50 was 100 to 500 nM.

Turning to `Cn1cc(-c2cc(Cl)cc3ncn(CCC[C@H]4NCCC[C@@H]4O)c23)ccc1=O` [Example 88, 5-(5-chloro-1-(3-((2R,3S)-3-hydroxypiperidin-2-yl)propyl)-1H-benzo[d]imidazol-7-yl)-1-methylpyridin-2(1H)-one], the IC50 is not below 500 nM.

`O[C@H]1CCCN[C@@H]1CCCn1cnc2cc(Cl)cc(-c3cnn(C(F)F)c3)c21` [Example 89, (2R,3S)-2-(3-(5-chloro-7-(1-(difluoromethyl)-1H-pyrazol-4-yl)-1H-benzo[d]imidazol-1-yl)propyl)piperidin-3-ol] returned an IC50 not above 100 nM.

The compound `O[C@H]1CCCN[C@@H]1CCCn1cnc2cc(Cl)cc(-c3ccon3)c21` [Example 90, (2R,3S)-2-(3-(5-chloro-7-(Isoxazol-3-yl)-1H-benzo[d]imidazol-1-yl)propyl)piperidin-3-ol] showed an IC50 of 100 to 500 nM.

Compound `O[C@H]1CCCN[C@@H]1CCCn1cnc2cc(Cl)cc(-c3ccsc3)c21` [Example 91, (2R,3S)-2-(3-(5-chloro-7-(thiophen-3-yl)-1H-benzo[d]imidazol-1-yl)propyl)piperidin-3-ol] had an IC50 not above 100 nM.

`Cc1sccc1-c1cc(Cl)cc2ncn(CCC[C@H]3NCCC[C@@H]3O)c12` [Example 92, (2R,3S)-2-(3-(5-chloro-7-(2-methylthiophen-3-yl)-1H-benzo[d]imidazol-1-yl)propyl)piperidin-3-ol]: the IC50 is 100 to 500 nM.

The compound `Cc1noc(C)c1-c1cc(Cl)cc2ncn(CCC[C@H]3NCCC[C@@H]3O)c12` [Example 93, (2R,3S)-2-(3-(5-chloro-7-(3,5-dimethylisoxazol-4-yl)-1H-benzo[d]imidazol-1-yl)propyl)piperidin-3-ol] had an IC50 not below 500 nM.

Regarding `O[C@H]1CCCN[C@@H]1CCCn1cnc2cc(Cl)cc(C3=CCOCC3)c21` [Example 94, (2R,3S)-2-(3-(5-chloro-7-(3,6-dihydro-2H-pyran-4-yl)-1H-benzo[d]imidazol-1-yl)propyl)piperidin-3-ol], the IC50 is 100 to 500 nM.

Compound `O[C@H]1CCCN[C@@H]1CCCn1cnc2cc(Cl)cc(-c3cnn(CC4OCCO4)c3)c21` [Example 95, (2R,3S)-2-(3-(7-(1-((1,3-dioxolan-2-yl)methyl)-1H-pyrazol-4-yl)-5-chloro-1H-benzo[d]imidazol-1-yl)propyl)piperidin-3-ol] registered an IC50 of 100 to 500 nM.

Consider `Cn1cncc1-c1cc(Cl)cc2ncn(CCC[C@H]3NCCC[C@@H]3O)c12` [Example 96, (2R,3S)-2-(3-(5-chloro-7-(1-methyl-1H-imidazol-5-yl)-1H-benzo[d]imidazol-1-yl)propyl)piperidin-3-ol], for which the IC50 is not below 500 nM.

On to `Cn1cc(-c2cc(Cl)cc3ncn(CCC[C@H]4NCCC[C@@H]4O)c23)cn1` [Example 97, (2R,3S)-2-(3-(5-chloro-7-(1-methyl-1H-pyrazol-4-yl)-1H-benzo[d]imidazol-1-yl)propyl)piperidin-3-ol], for which the IC50 was not above 100 nM.

Compound `O[C@H]1CCCN[C@@H]1CCCn1cnc2cccc(N3CCCC3)c21` [Example 98, (2R,3S)-2-(3-(7-(pyrrolidin-1-yl)-1H-benzo[d]imidazol-1-yl)propyl)piperidin-3-ol] registered an IC50 of 100 to 500 nM.

For `O[C@H]1CCCN[C@@H]1CCCn1cnc2cc(Cl)cc(N3CCCC3)c21` [Example 99, (2R,3S)-2-(3-(5-chloro-7-(pyrrolidin-1-yl)-1H-benzo[d]imidazol-1-yl)propyl)piperidin-3-ol], the IC50 is not above 100 nM.

In the case of `O[C@H]1CCCN[C@@H]1CCCn1cnc2cc(Cl)cc(-c3cnc(C4CC4)s3)c21` [Example 100, (2R,3S)-2-(3-(5-chloro-7-(2-cyclopropylthiazol-5-yl)-1H-benzo[d]imidazol-1-yl)propyl)piperidin-3-ol], the IC50 was 100 to 500 nM.

In the case of `O[C@H]1CCCN[C@@H]1CCCn1cnc2cc(Cl)cc(-c3cnn(-c4nccs4)c3)c21` [Example 101, (2R,3S)-2-(3-(5-chloro-7-(1-(thiazol-2-yl)-1H-pyrazol-4-yl)-1H-benzo[d]imidazol-1-yl)propyl)piperidin-3-ol], the IC50 is not above 100 nM.

In turn, `O[C@H]1CCCN[C@@H]1CCCn1cnc2cc(Cl)cc(-c3cnn(C4COC4)c3)c21` [Example 102, (2R,3S)-2-(3-(5-chloro-7-(1-(oxetan-3-yl)-1H-pyrazol-4-yl)-1H-benzo[d]imidazol-1-yl)propyl)piperidin-3-ol] registered an IC50 of 100 to 500 nM.

Turning to `O[C@H]1CCCN[C@@H]1CCCn1cnc2cc(Cl)cc(-c3csc(C4CCOCC4)n3)c21` [Example 103, (2R,3S)-2-(3-(5-chloro-7-(2-(tetrahydro-2H-pyran-4-yl)thiazol-4-yl)-1H-benzo[d]imidazol-1-yl)propyl)piperidin-3-ol], the IC50 was not below 500 nM.

Consider `O[C@H]1CCCN[C@@H]1CCCn1cnc2cc(Cl)cc(-c3ccoc3)c21` [Example 104, (2R,3S)-2-(3-(5-chloro-7-(furan-3-yl)-1H-benzo[d]imidazol-1-yl)propyl)piperidin-3-ol], for which the IC50 is not above 100 nM.

With `N#Cc1nc(-c2cc(Cl)cc3ncn(CCC[C@H]4NCCC[C@@H]4O)c23)cs1` [Example 105, 4-(5-chloro-1-(3-((2R,3S)-3-hydroxypiperidin-2-yl)propyl)-1H-benzo[d]imidazol-7-yl)thiazole-2-carbonitrile], the IC50 was not below 500 nM.

`CC(C)(C)n1cc(-c2cc(Cl)cc3ncn(CCC[C@H]4NCCC[C@@H]4O)c23)cn1` [Example 106, (2R,3S)-2-(3-(7-(1-(tert-butyl)-1H-pyrazol-4-yl)-5-chloro-1H-benzo[d]imidazol-1-yl)propyl)piperidin-3-ol]: the IC50 lay in the range of 100 to 500 nM.

In the case of `CC(C)CCn1cc(-c2cc(Cl)cc3ncn(CCC[C@H]4NCCC[C@@H]4O)c23)cn1` [Example 107, (2R,3S)-2-(3-(5-chloro-7-(1-isopentyl-1H-pyrazol-4-yl)-1H-benzo[d]imidazol-1-yl)propyl)piperidin-3-ol], the IC50 was in the range of 100 to 500 nM.

`CC(C)n1cc(-c2cc(Cl)cc3ncn(CCC[C@H]4NCCC[C@@H]4O)c23)cn1` [Example 108, (2R,3S)-2-(3-(5-chloro-7-(1-isopropyl-1H-pyrazol-4-yl)-1H-benzo[d]imidazol-1-yl)propyl)piperidin-3-ol] gave an IC50 of 100 to 500 nM.

As for `Cc1cscc1-c1cc(Cl)cc2ncn(CCC[C@H]3NCCC[C@@H]3O)c12` [Example 109, (2R,3S)-2-(3-(5-chloro-7-(4-methylthiophen-3-yl)-1H-benzo[d]imidazol-1-yl)propyl)piperidin-3-ol], the IC50 was not above 100 nM.

Regarding `CCOC(=O)c1occc1-c1cc(Cl)cc2ncn(CCC[C@H]3NCCC[C@@H]3O)c12` [Example 110, ethyl 3-(5-chloro-1-(3-((2R,3S)-3-hydroxypiperidin-2-yl)propyl)-1H-benzo[d]imidazol-7-yl)furan-2-carboxylate], the IC50 was not below 500 nM.

`COC(=O)c1cc(-c2cc(Cl)cc3ncn(CCC[C@H]4NCCC[C@@H]4O)c23)cs1` [Example 111, methyl 4-(5-chloro-1-(3-((2R,3S)-3-hydroxypiperidin-2-yl)propyl)-1H-benzo[d]imidazol-7-yl)thiophene-2-carboxylate] came in with an IC50 not above 100 nM.

The compound `O[C@H]1CCCN[C@@H]1CCCn1cnc2cc(Cl)cc(-c3cnn(CCF)c3)c21` [Example 112, (2R,3S)-2-(3-(5-chloro-7-(1-(2-fluoroethyl)-1H-pyrazol-4-yl)-1H-benzo[d]imidazol-1-yl)propyl)piperidin-3-ol] yielded an IC50 of 100 to 500 nM.

With `CCCCn1cc(-c2cc(Cl)cc3ncn(CCC[C@H]4NCCC[C@@H]4O)c23)cn1` [Example 113, (2R,3S)-2-(3-(7-(1-butyl-1H-pyrazol-4-yl)-5-chloro-1H-benzo[d]imidazol-1-yl)propyl)piperidin-3-ol], the IC50 was 100 to 500 nM.

`Cc1cc(-c2cc(Cl)cc3ncn(CCC[C@H]4NCCC[C@@H]4O)c23)c(C)s1` [Example 114, (2R,3S)-2-(3-(5-chloro-7-(2,5-dimethylthiophen-3-yl)-1H-benzo[d]imidazol-1-yl)propyl)piperidin-3-ol]: the 50% inhibitory concentration (IC50) fell in the range of 100 to 500 nM.

On to `CC(C)Cn1cc(-c2cc(Cl)cc3ncn(CCC[C@H]4NCCC[C@@H]4O)c23)cn1` [Example 115, (2R,3S)-2-(3-(5-chloro-7-(1-isobutyl-1H-pyrazol-4-yl)-1H-benzo[d]imidazol-1-yl)propyl)piperidin-3-ol], for which the IC50 was in the range of 100 to 500 nM.

Regarding `CCOC(=O)c1cc(-c2cc(Cl)cc3ncn(CCC[C@H]4NCCC[C@@H]4O)c23)cn1C` [Example 116, ethyl 4-(5-chloro-1-(3-((2R,3S)-3-hydroxypiperidin-2-yl)propyl)-1H-benzo[d]imidazol-7-yl)-1-methyl-1H-pyrrole-2-carboxylate], the IC50 is not above 100 nM.
